# Results published in patent US5141931A, “5-Quinolinylpyridinones, cardiotonic compositions and methods” (Sterling Winthrop Inc., priority 1991, dated 1992).
# Key:
# [1] = target: Phosphodiesterase III (PDE III); assay: Phosphodiesterase III Inhibition; type: biochemical, mongrel dogs (thoracic aorta); details: dog thoracic aorta PDE III; substrate concentration 1 μM; triplicate
# Protocol: Procedure 1 --Phosphodiesterase III Inhibition
# Phosphodiesterase III (PDE III) was obtained by a slight modification of the methods of Thompson et al. [Advances in Cyclic Nucleotide Research vol. […] Thoracic aorta from mongrel dogs was minced with fine scissors and homogenized in 10 volumes of a buffer containing 10 mM tris acetate, pH 7.5, 2 mM magnesium chloride, 1mM dithiothreitol and 2000 units per mL of aprotinin. This and subsequent procedures were performed at 0-4°. The tissue was homogenized, the homogenate was sonicated and the resultant homogenate was centrifuged at 48,000 g for 30 minutes. The resulting supernatant fraction was applied to a diethylaminoethyl ether (DEAE) cellulose column that had been equilibrated with 35 or 70 mM sodium acetate containing 1 mM dithiothreitol at pH 6.5. After application of the sample, the column was washed with 2-3 bed volumes of the equilibration buffer and the PDE isozyme was eluted from the column using a continuous sodium acetate gradient to 1 molar. Fractions of approximately 5 mL were collected and assayed for cAMP and cGMP PDE activity at substrate concentrations of 1 μM. Appropriate fractions corresponding to peak three were pooled and dialyzed against 70 mM sodium acetate, 0.5 mM dithiothreitol for at least 20 hours.
# mean arterial pressure = assay: In vivo Vasodilation in the Rat; set-up: species or system normotensive male Sprague-Dawley rats; details: 0.4 mg/kg, orally by gavage
# Protocol: Procedure 2--In vivo Vasodilation in the Rat
# Normotensive male Sprague-Dawley rats of 325-425 g were anesthetized with sodium pentobarbital and an arterial catheter was placed in the abdominal aorta via the femoral artery. The catheter was tunneled subcutaneously, exteriorized at the nape of the neck, filled with heparinized saline and sealed with a stainless steel plug. The wounds were sutured and a suspension of penicillin G benzathine and penicillin G procaine was administered subcutaneously. All animals were allowed at least two days recovery prior to testing.
# Rats were fasted 17 hours then placed into individual plexiglass boxes. The arterial catheter was connected to a Statham pressure transducer, positioned at the heart level, and the arterial pressure signal was recorded on a polygraph. The animals remained undisturbed for at least one hour to adapt to the testing environment. After the adaptation period, three baseline arterial pressure and heart rate measurements were taken at 15-minute intervals prior to the administration of the test drug. […] Arterial pressure and heart rate were measured at 15-minute intervals for the first hour and 30-minute intervals for the next four hours following the administration of drugs.
# The data were analyzed by one-way analysis of variance for repeated measures. […]
SMILES,IC50 [1] [nM],area under the curve for reduction of mean arterial pressure (mean arterial pressure; conscious normotensive rats) [%],"statistical significance of reduction of mean arterial pressure (mean arterial pressure; Student Newman-Keuls test, probability of less than 5%, to the end of the test at six hours)"
"Cc1[nH]c(=O)c(C#N)cc1-c1ccc2ncccc2c1 [Example 3, 1,2-Dihydro-6-methyl-2-oxo-5-(6-quinolinyl)-3-pyridinecarbonitrile]",57,75,statistical significance at all times to the end of the test at six hours
"Cc1[nH]c(=O)c(C#N)cc1-c1ccncc1 [milrinone, reference compound]",500,–,–
